# Results taken from patent US20230061432A1, “NEW TECHNOLOGY TO CONJUGATE THE TACCALONOLIDE MICROTUBULE STABILIZERS WITH LINKERS/PAYLOADS” (priority 2019, published 2023).
# Tests used:
# [1] = target: T1, purified porcine brain tubulin (Sus scrofa, UniProt P02554); assay: biochemical tubulin polymerization assay; details: tubulin 20 μM
# T1 construct: purified porcine brain tubulin (Cytoskeleton); purchased Cytoskeleton; host or cells: porcine brain
# Protocol: Exemplary results of the […] tubulin polymerization assay are illustrated in FIG. 3, FIG. 4B, and FIG. 5B and were obtained as described in Risinger et al., Cancer Research, 2013.
# Biochemical tubulin polymerization assays were performed using purified porcine brain tubulin (Cytoskeleton). In individual wells of a 96-well plate, 1 μL of each 100× drug stock was incubated with 20 μM porcine brain tubulin in GPEM glycerol buffer (1 mM GTP, 10% glycerol, 80 mM PIPES pH 6.9, 2 mM MgCl2 and 0.5 mM EGTA) in a final volume of 100 μL. Pure porcine tubulin was prepared on ice at 4° C. to inhibit tubulin polymerization until the assay was initiated, while the plate reader was pre-warmed to 37° C. Tubulin polymerization was measured every minute for an hour by light scattering at 340 nm in a Spectramax plate reader using SoftMax software (Molecular Devices). Light scattering was normalized to the initial measurement for each well. For the probe-tubulin binding assay, samples were prepared on ice in tubes instead of a 96 well plate, and moved to a 37° C. heat block to initiate binding and polymerization. The time zero (0′) sample consisted of tubulin polymerization buffer prior to addition of taccalonolide probe. […]
# SK-OV-3 cells = assay: sulforhodamine B (SRB) antiproliferative assay; format: cell-based, human; details: 48 h; mean ± SEM; read-out: GI50, concentration that causes a 50% decrease in proliferation, SK-OV-3
# Source text: (§1) HCC1806 (CRL-2335) and HCC1937 (CRL-2336) human triple-negative breast cancer cells, HeLa (CCL-2) cervical cancer cells and SK-OV-3 (HTB-77) ovarian cancer cells were obtained from ATCC (Manassas, Va.) and validated by STR profiling (Genetica). SK-OV-3 cells stably overexpressing Pgp by adenoviral-mediated expression of MDR1 were obtained from Dr. Susan Kane and subcloned by limiting dilution to isolate the single-cell clones utilized in these studies as SK-OV-3-MDR-1-6/6 (Risinger, A. L. et al. (2008) Cancer Res. 68, 8881-8888). A single-cell clone from transfection of HeLa cells with βIII-tubulin, designated wild type βIII, was constructed and obtained from Dr. Richard Luduena (Risinger, A. L. et al. (2008) Cancer Res. 68, 8881-8888). HCC1806 and HCC1937 cells were cultured in RPMI 1640 media (Corning) with 10% FBS (Cellgro) and 50 μg/mL gentamicin (Gibco). HeLa, […] expressing HeLa, SK-OV-3 and SK-OV-3/MDR-1-6/6 cells were grown in BME media with Earle's salts (Gibco) with 10% FBS, 1× final 1% GlutaMax™ Supplement (Gibco), and […] gentamicin. The use of HeLa cells allows for the direct comparison of the in vitro potency as compared to other compounds of this class, which have been predominantly reported in this line and compound potencies are consistent among three additional cancer cell lines. HeLa cells were also used for ectopic expression of tubulin mutants due to the high degree of transfectability of this cell line. Cells were tested for mycoplasma contamination using the Mycoplasma Detection Kit-Quick Test (Cat: B39032, Lot: JW004).
# (§2) The sulforhodamine B (SRB) assay was utilized to examine the antiproliferative and cytotoxic effects of the compounds (Skehan, P. et al. (1990) J. Natl. Cancer Inst. 82, 1107-1112; Vichai and Kirtikara (2006) Nat. Protoc. 1, 1112-1116). Approximately 2,000 cells per well (for SK-OV-3, HeLa and βIII-tubulin expressing HeLa) or 4,000 cells per well (for HCC1806 and HCC1937) were seeded in 96-well plates. For each biological replicate, cells were treated in triplicate with each concentration of compound or vehicle control for 48 h in a final volume of 200 μL. The plates were fixed with 10% trichloroacetic acid for protein precipitation of adherent cells and then washed with distilled water. 100 μL of SRB dye, which binds protein stoichiometrically, was added and then unbound dye removed with 1% acetic acid followed by the addition of 200 μL 10 mM Tris to solubilize the dye, which was quantified by absorbance at 560 nm. The percent growth of treated cells relative to the density at the time of drug addiction was calculated as compared to vehicle treated cells.
# HeLa cells = assay: sulforhodamine B (SRB) antiproliferative assay; format: cell-based, human; details: 48 h; mean ± SEM; read-out: GI50, concentration that causes a 50% decrease in proliferation, HeLa
# Source text: as §1, §2
# T1 sequence (P02554 whole entry): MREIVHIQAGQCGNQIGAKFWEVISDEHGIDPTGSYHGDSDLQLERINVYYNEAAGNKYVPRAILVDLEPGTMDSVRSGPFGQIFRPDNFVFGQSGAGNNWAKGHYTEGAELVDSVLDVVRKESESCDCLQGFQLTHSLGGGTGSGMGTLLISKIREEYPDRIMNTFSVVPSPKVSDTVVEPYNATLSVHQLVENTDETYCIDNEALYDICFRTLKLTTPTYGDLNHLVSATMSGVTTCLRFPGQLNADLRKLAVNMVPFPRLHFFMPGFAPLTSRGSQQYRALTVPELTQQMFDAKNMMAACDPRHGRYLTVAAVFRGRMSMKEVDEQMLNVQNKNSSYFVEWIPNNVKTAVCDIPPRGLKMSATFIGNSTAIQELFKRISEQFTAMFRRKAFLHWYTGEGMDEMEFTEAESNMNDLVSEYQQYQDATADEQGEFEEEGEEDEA
# T1 sequence (P02550 whole entry partner): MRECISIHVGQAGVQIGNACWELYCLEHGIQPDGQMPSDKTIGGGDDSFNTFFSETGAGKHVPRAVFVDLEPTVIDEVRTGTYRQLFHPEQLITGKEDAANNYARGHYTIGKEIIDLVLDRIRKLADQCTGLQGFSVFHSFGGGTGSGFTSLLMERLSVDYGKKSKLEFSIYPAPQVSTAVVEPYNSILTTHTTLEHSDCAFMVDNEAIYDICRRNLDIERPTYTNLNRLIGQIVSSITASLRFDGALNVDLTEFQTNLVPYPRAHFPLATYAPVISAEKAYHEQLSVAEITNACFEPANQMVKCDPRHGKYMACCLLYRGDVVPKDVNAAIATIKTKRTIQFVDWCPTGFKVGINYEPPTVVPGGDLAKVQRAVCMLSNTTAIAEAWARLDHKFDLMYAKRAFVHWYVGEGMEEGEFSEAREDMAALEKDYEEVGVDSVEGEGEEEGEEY
compound,measurement,setting,value
"CC(=O)O[C@H]1[C@H]2[C@H]([C@@H]3[C@@H](O)[C@@H]4[C@H]([C@H](C)[C@@H]5O[C@@]56OC(=O)[C@@](C)(O)[C@]46C)[C@@]3(C)[C@H]1OC(C)=O)[C@@H](O)C(=O)[C@H]1C[C@@H]3O[C@@H]3[C@H](OC(C)=O)[C@]21C [compound 2, taccalonolide AJ, reference compound]",concentration range promoting polymerization of purified tubulin,[1],5 to 20 µM
same,GI50,SK-OV-3 cells,6.2 nM
same,GI50,HeLa cells,8.5 nM
